Blank lines part the entries; values can stand above or below the compound they belong to.
Legend:
[1] = target: Human Aldose Reductase (Homo sapiens, UniProt P15121); assay: Human Aldose Reductase Inhibition; type: biochemical; conditions: for activity against human aldose reductase as compared to rat aldose reductase: human vs rat; for more active against human aldose reductase than the Sarges resolved compound: relative to Sarges resolved
[2] = system: nerve conduction velocities of the sciatic nerve; assay: Nerve conduction study in diabetic rats; type: in vivo, male albino rats; conditions: for nerve conduction velocity as a percent of normal, first inflection / nerve conduction velocity as a percent of normal, first peak / nerve conduction velocity as a percent of normal, second inflection / nerve conduction velocity as a percent of normal, second peak: 15 weeks
Experimental: (§1) The purpose is to evaluate the efficacy of the racemic 2-fluoro compound (L), an aldose reductase inhibitor, for inhibiting cataractogenesis and nerve conduction deficit in diabetic rats.
(§2) Diabetes was induced in male albino rats by the intravenous injection of 50 mg/kg streptozotocin. The diabetic state was verified by measuring the blood glucose level in each animal before and after injection. […] A fourth group consisted of non-diabetic and otherwise normal rats which remained untreated. Treatments were given once daily by oral […], and continued through the day prior to sacrifice of the animal.
(§3) Each animal was weighed on a weekly basis. Both lenses of each animal were examined by ophthalmoscope periodically and any cataractous changes were graded and noted. At the end of 15 weeks, each animal was anesthetized using pentobarbital and the nerve conduction velocities of the sciatic nerve were measured. After an animal was sacrificed, the sciatic nerve and other tissues and organs were taken, weighed, and frozen for future biochemical analyses.

[3] = target: Rat Aldose Reductase (Rattus norvegicus, UniProt P07943); assay: Rat Aldose Reductase Inhibition; type: biochemical
Text: Biophysical Chemistry, 8 (1978) 81-85; P. F. Kador, L. O. Merola and J. H
Kinoshita Documenta Ophthamologica, 18 (1979) 117.

[4] = system: cataractogenesis in diabetic rats; assay: cataractous changes in streptozotocin diabetic rats; type: in vivo, male albino rats; conditions: 15 weeks
Experimental: as §1, §2, §3
Cataractous changes were graded on a scale of 0 to 4; 0 denoting a normal looking lens with no changes and 4 denoting opacification involving the whole lens.

[5] = system: galactitol levels in the lenses; assay: galactitol levels in lenses of galactose-fed rats at Day 32; type: in vivo, rat; set-up: average galactitol levels in lenses: unit not given here; conditions: for average galactitol levels in lenses: Day 32
Text: The compounds were formulated in ground Purina Rodent Laboratory Chow, Number 5001, containing 30% galactose.
The galactose control group (twelve rats, twenty-four eyes) were fed ground Purina Rodent Laboratory Chow, No. 5001 containing 30% by weight galactose. The six test compound groups (twelve rats, twenty-four eyes per group) were fed the same 30% galactose chow except that the chow was formulated to deliver […] of the indicated test compound (see Table IV).

inhibition at 100 µM ([1]; 10^-4, human, read-out: In vitro Aldose Reductase Inhibition): 100%
inhibition at 10 µM ([1]; 10^-5, human, read-out: In vitro Aldose Reductase Inhibition): 88%
inhibition at 1 µM ([1]; 10^-6, human, read-out: In vitro Aldose Reductase Inhibition): 81%
inhibition at 0.1 µM ([1]; 10^-7, human, read-out: In vitro Aldose Reductase Inhibition): 53%
inhibition at 0.01 µM ([1]; 10^-8, human, read-out: In vitro Aldose Reductase Inhibition): 18%
IC50 ([1]; human): 91 nM
activity against human aldose reductase as compared to rat aldose reductase [1]: as active or more active
more active against human aldose reductase than the Sarges resolved compound [1]: 7 X
IC50 [3]: 150 nM
SMILES: O=C1NC(=O)C2(N1)c1ccccc1-c1ccc(F)cc12 (racemic) [Compound L, dl-Spiro(2-fluorofluoren-9,4'-imidazolidine)-2',5'-dione]
nerve conduction velocity as a percent of normal, first inflection ([2]; 8 mg/kg once daily oral): 93.3%
nerve conduction velocity as a percent of normal, first peak ([2]; 8 mg/kg once daily oral): 88.2%
nerve conduction velocity as a percent of normal, second inflection ([2]; 8 mg/kg once daily oral): 87.4%
nerve conduction velocity as a percent of normal, second peak ([2]; 8 mg/kg once daily oral): 85.0%
statistical significance of improvement in nerve conduction ([2]; 8 mg/kg, by comparison to the untreated diabetic rats): significant
prevention of lens opacification in diabetic rats ([4]; 8 mg/kg once daily oral): effective in preventing opacification of the lens
average galactitol levels in lenses ([5]; 4 Mg/Kg/day): 6.274
average galactitol levels in lenses ([5]; 8 Mg/Kg/day): 5.074

SMILES: O=C1NC(=O)C2(CCOc3ccc(F)cc32)N1 (racemic) [Sarges Racemic, dl-spiro-(6-fluorochroman-4,4'-imidazolidine)-2',5'-dione, reference compound]
nerve conduction velocity as a percent of normal, first inflection ([2]; 16 mg/kg once daily oral): 88.6%
nerve conduction velocity as a percent of normal, first peak ([2]; 16 mg/kg once daily oral): 83.9%
nerve conduction velocity as a percent of normal, second inflection ([2]; 16 mg/kg once daily oral): 82.4%
nerve conduction velocity as a percent of normal, second peak ([2]; 16 mg/kg once daily oral): 79.1%
prevention of lens opacification in diabetic rats ([4]; 16 mg/kg once daily oral, 30 lenses): all appeared normal
average galactitol levels in lenses ([5]; 4 Mg/Kg/day): 9.238
average galactitol levels in lenses ([5]; 8 Mg/Kg/day): 9.107

In vitro Aldose Reductase Inhibition ([1]; 10^-5, human): 81
In vitro Aldose Reductase Inhibition ([1]; 10^-6, human): 71
In vitro Aldose Reductase Inhibition ([1]; 10^-7, human): 64
In vitro Aldose Reductase Inhibition ([1]; 10^-8, human): 35
IC50 ([1]; human): 52 nM
activity against human aldose reductase as compared to rat aldose reductase [1]: as active or more active
more active against human aldose reductase than the Sarges resolved compound [1]: 12 X
IC50 [3]: 44 nM
SMILES: O=C1NC(=O)C2(N1)c1cc(F)ccc1-c1ccc(F)cc12 [M, Spiro-[2,7-difluorofluoren-9,4'-imidazolidine]-2',5'-dione]
average galactitol levels in lenses ([5]; 4 Mg/Kg/day): 2.560
potency relative to the 2-fluoro compound ([5]; 4 and 8 Mg/Kg/day): more potent
average galactitol levels in lenses ([5]; 8 Mg/Kg/day): 1.399

Source: patent US4540700A, “Treatment of diabetic complications with certain spiro-imidazolidine-diones” (Alcon Laboratories, Inc., priority 1984, dated 1985)
